Data reported in patent EP2676666A1, “Compounds for use in diagnosis or therapy of vulnerable atherosclerotic plaques” (Eidgenössische Technische Hochschule Zürich (ETH), priority 2012, dated 2013).

Tested on: human atherosclerotic plaques
Assay: Autoradiography binding study on human atherosclerotic plaque sections
Details: 2.5 nM; for maximal bound ^11C-Compound 4: average value (red line), 20 min, room temperature, values normalized to vulnerable plaque 8
Experimental: Compound 4 was labeled with ^11C (specific activity ~350 GBq/µmol) and human atherosclerotic sections were incubated with 2.5 nM for 20 min, room temperature. Nonspecific binding was determined in the presence of excess nonradioactive Compound 4 (100 µM). After washing to remove unspecific bound ^11C-Compound 4, slides were exposed to a radiosensitive film (BAS-5000 Fujifilm) for 30 min. Calibration standards (2.5 - 0.02 nM) were included in the cassette. Films were developed using an automatic film processor (BAS 5000, Fuji) Quantitative analysis was performed using a computerized image analysis system (AIDA Image Analyzer Software). Optical density readings, corrected for background, were made and values standardized against the linear portion of a curve generated using standards and expressed as maximal bound ^11C-Compound 4. Values were normalized to patient "vulnerable plaque 8" (Fig. 5).

With `[11CH3]N1CCC(NC(=O)c2ccc(-n3nc4c5cccc(F)c5[nH]nc-4c3=O)cc2)CC1` [^11C-Compound 4] as the compound, how does the “maximal bound ^11C-Compound 4” value (Fig. 5 (B)) read?
Its value is 0.7.

And the “maximal bound ^11C-Compound 4” value (Fig. 5 (C), stable plaques)?
Its value is 0.15.

What about the “maximal bound ^11C-Compound 4” value (Fig. 5 (C), vulnerable plaques) of the same compound?
Its value is 1.2.

What about the “binding to vulnerable plaques compared to stable plaques” value (conclusion in words from the autoradiography) of the same compound?
Its value is “higher affinity to vulnerable plaques compared to stable plaques”.
